This is an account of results in patent US20220304998A1, “REBAMIPIDE FOR USE IN PREVENTION AND TREATMENT OF CROHN'S DISEASE” (SQUARE POWER LTD., priority 2019, published 2022).

Data set [1] concerns patients suffering from Crohn's disease. Description: Clinical course, response and tolerability in Crohn's disease patient case reports. As to conditions: for adverse reaction: affecting skin and joints. It counts as in vivo, human. An excerpt:
(§1) Several patients suffering from Crohn's disease for at least 5 years without sufficient response to standard treatment were given rebamipide tablets three times a day. […] The severity of the disease was quantified by the CDAI, and the level of inflammation by fecal calprotectin.

The conditions of data set [2]: oral administration; cited from earlier work.
Data set [3] deals with Calprotectin (FC). Description: Fecal calprotectin in stool samples by ELISA kit (EK-CAL, Bühlmann). It counts as in vivo, human. As to conditions: for fecal calprotectin level: Example 1; for calprotectin: Example 2.
Source text: as §1
Calprotectin (FC) is a small calcium-binding protein that is used as a biomarker for inflammatory bowel diseases since its fecal concentration correlates well with the disease severity. Calprotectin values lower than 200 μg/g feces are considered the normal level. It was measured in stool samples using commercially available enzyme-linked immunosorbent assay (ELISA) kit (EK-CAL, Bühlmann).
A general note: In an ELISA, binding on a coated surface is turned into a signal by an enzyme label.

Data set [4] concerns patients suffering from Crohn's disease. Description: Crohn's Disease Activity Index (CDAI) in Crohn's disease patients given rebamipide tablets. It counts as in vivo, human.
Source text: as §1
Crohn's Disease Activity Index (CDAI) is a research tool used to quantify the symptoms of patients with Crohn's disease. It consists of eight factors, each summed after adjustment with a weighting factor. Remission of Crohn's disease is defined as CDAI below 150, whereas severe disease is defined as a value of greater than 450.

Where [5] appears, read: summary of patient sample, add-on to corticosteroid.

Regarding `Cn1cnc([N+](=O)[O-])c1Sc1ncnc2nc[nH]c12` [azathioprine], the “adverse reaction leading to discontinuation” value in data set [1] (Example 3, discontinued after two weeks) is listed as “acute pancreatitis”.

Regarding `CCCC1O[C@@H]2C[C@H]3[C@@H]4CCC5=CC(=O)C=C[C@]5(C)[C@H]4[C@@H](O)C[C@]3(C)[C@]2(C(=O)CO)O1` (stereo partly shown) [budesonide], in data set [1] (Example 3, therapy with budesonide and mesalazine), the “duration of maintained remission” value was “about 10 years”.

Take `C[C@H]1C[C@@H]2[C@H]([C@@H](O)C[C@@]3(C)[C@H]2CC[C@]3(O)C(=O)CO)[C@@]2(C)C=CC(=O)C=C12` [methylprednisolon]: the “treatment outcome of corticosteroid alone after relapse” value in data set [1] (Example 1, methylprednisolon 24 mg/day before rebamipide) was “without success”.

On to `C[C@]12C=CC(=O)C=C1CC[C@@H]1[C@@H]2C(=O)C[C@@]2(C)[C@H]1CC[C@]2(O)C(=O)CO` [prednisone], for which the “treatment outcome of corticosteroid alone after relapse” value in data set [1] (Example 2, prednisone 40 mg/day before rebamipide) was “not able to reach remission”.

Consider `O=C(NC(Cc1cc(=O)[nH]c2ccccc12)C(=O)O)c1ccc(Cl)cc1` (stereo not shown) [rebamipide, 2-[(4-chlorobenzoyl)amino]-3-(2-oxo-1H-quinolin-4-yl)propanoic acid], for which the “absorption in the GI tract” value in data set [2] is “poorly absorbed”. The fecal calprotectin level came to 63 µg/g in data set [3] (after another 6 weeks, corticosteroid dose reduced to half, rebamipide 100 mg three times daily) and 228 µg/g in data set [3] (rebamipide 100 mg three times daily with methylprednisolon 24 mg/day, after 6 weeks, relapse value up to 1939). In addition, the calprotectin in data set [3] (after another 6 weeks, rebamipide 100 mg t.i.d., prednisone tapered from 30 mg/day by 10 mg every 2 weeks) amounted to 110 µg/g; in data set [3] (rebamipide 200 mg t.i.d. add-on to prednisone 40 mg/day, after 6 weeks, relapse value 2215) it was 356 µg/g. Also, the calprotectin level in data set [3] (Example 3, rebamipide 100 mg three times daily with prednisone 50 mg/day, 25 mg after 14 days, after another 6 weeks, initial value up to 1051) was 122 µg/g. Besides, the “effect on calprotectin levels” value in data set [3] (setting [5]) was “normalize calprotectin levels”. Further, in data set [1] (Example 1, patient continued only rebamipide), the “disease activity on rebamipide only after corticosteroid withdrawal” value is recorded as “No worsening in disease activity”. In addition, the “disease activity on rebamipide only after prednisone discontinuation” value in data set [1] (Example 2, patient continued only rebamipide 100 mg t.i.d.) is on record as “No worsening in disease activity”. For the same compound, the clinical symptoms result in data set [1] (Example 3, after 14 days of rebamipide 100 mg three times daily with prednisone 50 mg/day) was “alleviation of the clinical symptoms”. Moreover, the “disease activity on rebamipide only after prednisone withdrawal” value in data set [1] (Example 3, patient continued only rebamipide) is recorded as “No worsening in disease activity”. Moreover, the maintenance of remission result in data set [1] (rebamipide alone, long-term) is “able to maintain remission”. Further, the “tolerability of long-term therapy” value in data set [1] (rebamipide alone, long-term) is reported as “well tolerated”. Besides, the “remission in patients who exhausted standard treatment options” value in data set [1] (setting [5]) is listed as “induce remission”. The CDAI in data set [4] (Example 1, person, Crohn's ileocolitis, rebamipide 100 mg three times daily with methylprednisolon 24 mg/day, after 6 weeks, relapse value 358) is 181 points; in data set [4] (Example 1, after another 6 weeks, corticosteroid dose reduced to half, rebamipide 100 mg three times daily), 73 points; in data set [4] (Example 2, person, Crohn's ileocolitis, rebamipide 200 mg t.i.d. add-on to prednisone 40 mg/day, after 6 weeks, relapse value 479), 225 points; in data set [4] (Example 2, after another 6 weeks, rebamipide 100 mg t.i.d., prednisone tapered from 30 mg/day by 10 mg every 2 weeks), 84 points; in data set [4] (Example 3, person, Crohn's ileitis, rebamipide 100 mg three times daily with prednisone 50 mg/day, 25 mg after 14 days, after another 6 weeks, initial value 377) it was 98 points.

For adalimumab, the adverse reaction entry in data set [1] (Example 1) is “immunological response had developed”.

Consider “infliximab: monoclonal antibody against TNFα”, for which the adverse reaction entry in data set [1] (Example 1) is recorded as “immunological response had developed”.
